For ten molecules, melting point, IC50 and EC50 results are on record in patent US8546608B2, “Proteasome inhibitors and methods of using the same” (Cephalon, Inc., priority 2003, dated 2013).

Data set [1] has as its target T1, 20S Human Erythrocyte Proteasome (HEP) (Homo sapiens, UniProt P20618+P28074).
T1 construct: 20S Human Erythrocyte Proteasome (HEP), purchased from Immatics Biotechnologies Inc; purchased Immatics Biotechnologies Inc., Tübingen, Germany; host or cells: human erythrocytes (natural source)
The data set can be described thus: Chymotrypsin-like activity of 20S Human Erythrocyte Proteasome (HEP), IC50 determination. Format: biochemical. Particulars: assay of Example C, inhibition of HEP. The essentials:
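20S proteasome at 0.2 μg/mL (about 0.6 nM catalytic sites) in 20 mM Tris with 0.04% SDS, preincubated 15 min at 37° C with inhibitor before Suc-LLVY-AMC (100 μM final). AMC fluorescence read in the linear range; triplicates, IC50 from concentration series.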

Data set [2] deals with T2, proteasome in Molt-4 cells (human leukemia) (Homo sapiens, UniProt P20618+P28074).
T2 sequence (P28074 60-263): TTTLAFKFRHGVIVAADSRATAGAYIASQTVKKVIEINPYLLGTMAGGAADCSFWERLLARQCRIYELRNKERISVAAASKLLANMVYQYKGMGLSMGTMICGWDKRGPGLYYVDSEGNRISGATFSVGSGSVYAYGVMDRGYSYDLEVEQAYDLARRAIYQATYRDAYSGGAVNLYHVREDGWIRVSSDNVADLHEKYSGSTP
T2 sequence (P20618 29-241): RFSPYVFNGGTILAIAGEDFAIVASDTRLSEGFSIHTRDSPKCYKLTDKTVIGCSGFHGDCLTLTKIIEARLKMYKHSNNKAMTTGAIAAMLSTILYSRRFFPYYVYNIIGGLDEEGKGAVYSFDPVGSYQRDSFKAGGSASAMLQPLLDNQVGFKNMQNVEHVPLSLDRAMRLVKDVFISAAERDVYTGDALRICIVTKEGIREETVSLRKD
Type of data set: cell-based. The note with it: assay of Example E, inhibition of MOLT4; read-out: MOLT4 (EC50). An outline of the steps: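 Intact Molt-4 cells (6×10^6 cells/mL) in HEPES-buffered saline were preincubated with inhibitor 15 min at 37 °C, then given cell-permeable MeOSuc-FLF-AFC at 25 μM final.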

Where only a bound is given, the exact number is not on record here.

For the molecule `CCCCCCCCCC(=O)N[C@@H](CNC(=O)c1cccs1)C(=O)N[C@@H](CC(C)C)B1O[C@@H]2C[C@@H]3C[C@@H](C3(C)C)[C@]2(C)O1` [D.24.9, Decanamide, N-[(1S)-1-[[[(1R)-1-[(3aS,4S,6S,7aR)-hexahydro-3a,5,5-trimethyl-4,6-methano-1,3,2-benzodioxaborol-2-yl]-3-methylbutyl]amino]carbonyl]-2-[(thien-2-ylcarbonyl)amino]ethyl]-], the melting point was 110 °C. Further, in data set [1], the IC50 was less than 10 nM. Besides, the EC50 in data set [2] is less than 200 nM.
For `CCCCc1ccc(C(=O)N[C@@H](CNC(=O)c2ccc(S(N)(=O)=O)cc2)C(=O)N[C@@H](CC(C)C)B2O[C@@H]3C[C@@H]4C[C@@H](C4(C)C)[C@]3(C)O2)cc1` [D.24.16], the melting point is 145 to 147 °C. In data set [1], this molecule came in with a 50% inhibitory concentration (IC50) of less than 10 nM. Further, the half-maximal effective concentration (EC50) in data set [2] was less than 200 nM.
In the same order, the values of `CCCCCCCCCCCCC(=O)N[C@H](C(=O)N[C@@H](CC(C)C)B(O)O)[C@@H](C)O` [E.3.3, Boronic acid, [(1R)-1-[[(2S,3R)-3-hydroxy-2-[(tridecanoyl)amino]-1-oxobutyl]amino]-3-methylbutyl]] are 97 to 116 °C, less than 10 nM and less than 200 nM.
The molecule `CC(C)C[C@H](NC(=O)[C@@H](NC(=O)c1ccc(-c2ccccc2)cc1)[C@@H](C)O)B(O)O` [E.3.5, Boronic acid, [(1R)-1-[[(2S,3R)-3-hydroxy-2-[(4-phenylbenzoyl)amino]-1-oxobutyl]amino]-3-methylbutyl]] showed a melting point of 200 to 208 °C. In addition, the IC50 in data set [1] is less than 10 nM. Besides, in data set [2], the 50% effective concentration (EC50) was less than 200 nM.
With `CCCCc1ccc(C(=O)N[C@@H](CNS(C)(=O)=O)C(=O)N[C@@H](CC(C)C)B(O)O)cc1` [E.5.3, Boronic acid, [(1R)-1-[[(2S)-3-(methanesulfamido)-2-[(4-butyl)-benzoylamino]-1-oxopropyl]amino]-3-methylbutyl]], the melting point lay within 120 to 123 °C. The concentration for half-maximal inhibition (IC50) in data set [1] is less than 100 nM. Moreover, the EC50 in data set [2] fell in the range of 200 to 2000 nM.
Consider `CCCCc1ccc(C(=O)N[C@@H](CNC(=O)OCc2ccccc2)C(=O)N[C@@H](CC(C)C)B(O)O)cc1` [E.5.6], for which the melting point fell in the range of 92 to 96 °C. Besides, the IC50 in data set [1] is less than 10 nM. In addition, the EC50 in data set [2] is less than 200 nM.
Turning to `CCCCc1ccc(C(=O)N[C@@H](CNC(C)=O)C(=O)N[C@@H](CC(C)C)B(O)O)cc1` [E.5.8], the melting point was 107 to 109 °C. The molecule further registered an IC50 in data set [1] of less than 10 nM. In data set [2], the half-maximal effective concentration (EC50) was less than 200 nM.
For the molecule `CCCCc1ccc(C(=O)N[C@@H](CNS(=O)(=O)c2ccc(F)cc2)C(=O)N[C@@H](CC(C)C)B(O)O)cc1` [E.5.11, Boronic acid, [(1R)-1-[[(2S)-3-[4-fluoro-benzenesulfonamide]-2-[(4-butylbenzoyl)amino]-1-oxopropyl]amino]-3-methylbutyl]], the melting point fell in the range of 130 to 132 °C. In data set [1], the half-maximal inhibitory concentration (IC50) is less than 10 nM. Moreover, in data set [2], the EC50 is less than 200 nM.
In turn, `CCCCc1ccc(C(=O)N[C@@H](CNC(=O)c2cccn2C)C(=O)N[C@@H](CC(C)C)B(O)O)cc1` [E.5.16, Boronic acid, [(1R)-1-[[(2S)-3-[1-N-methyl-2-pyrrolylcarbonylamino]-2-[(4-butylbenzoyl)amino]-1-oxopropyl]amino]-3-methylbutyl]] registered a melting point of 130 to 135 °C. The same molecule returned an IC50 in data set [1] of less than 10 nM. Further, the concentration for a half-maximal effect (EC50) in data set [2] was less than 200 nM.
Consider `CCCCc1ccc(C(=O)N[C@@H](CNC(=O)c2ccc(S(N)(=O)=O)cc2)C(=O)N[C@@H](CC(C)C)B(O)O)cc1` [E.5.17, Boronic acid, [(1R)-1-[[(2S)-3-[4-sulfamylbenzoylamino]-2-[(4-butylbenzoyl)amino]-1-oxopropyl]amino]-3-methylbutyl]], for which the melting point is 156 to 159 °C. The IC50 in data set [1] is less than 10 nM. Further, the EC50 in data set [2] lay in the range of 200 to 2000 nM.
